# Experimental data published in patent US20160184459A1, “CANCER CELL SPECIFIC IMAGING PROBES AND METHODS OF USE” (THE RESEARCH FOUNDATION FOR THE STATE UNIVERSITY OF NEW YORK, priority 2013, published 2016).
# Tests used:
# [1] = tested on: breast cancer cells (MCF-7 and MDA-MB-231); assay: PI staining cytotoxicity, breast cancer cells; assay type: cell-based
# Procedure: FIG. 17. Selective cytotoxicity by BKAc-Puro on breast cancer cells. Normal mammary gland epithelial cells (Eph4) and breast cancer cells (MCF-7 and MDA-MB-231) were grown and analyzed as in FIG. 10. BF, bright field. PI, fluorescent PI channel. BKAc-Puro can selectively cause cell death in breast cancer cells (MCF-7 and MDA-MB-231) while leaving normal Eph4 cells unharmed.
# (§1) Cell number was determined by cell counting using improved Neubauer hemacytometer. Cell viability was calculated as the number of viable cells divided by the total number of cells using Trypan Blue Stain (Invitrogen) to distinguish non-viable cells. Data were obtained from duplicated samples with quadruplicate measurements. MTS based cell viability assay was performed using CellTiter 96 Aqueous Cell Proliferation Assay (Promega) according to the manufacturer's instruction. […] After additional 2-3 h incubation, the absorbance of the formazan at 490 nm was measured by the microplate reader. […] Determination of non-viable cells using PI staining was performed by adding 1 μg/ml of PI solution (Sigma) to the cell culture, prior to the examination under fluorescence microscopy (Axiovert 3, Carl Zeiss) through a×32 objective equipped with a digital imaging processor (Infinity 3, Lumenera).
# [2] = tested on: malignant cell lines with high HDAC and CTSL activity (COGA-10, HCA-7, HT29, HCT116); assay: MTS cell viability assay, malignant colon cancer cell lines; assay type: cell-based; details: Homo sapiens, 120 h, 5 d, read-out: IC50, inhibition of cell viability
# Procedure: FIG. 13. Inhibition of cell viability by BKAc-Puro is presented in dose-response curve format for the same cell lines as in FIG. 8. The cell lines were treated with DMSO or the indicated doses of agent (4.22, 8.44, 16.9, 33.8, 67.5, or 135 μM) for 5 d followed by MTS assay. Data represent mean values of triplicate measurements±s.d. (n=3). IC50 values were fit by logistic regression.
# as §1
# [3] = tested on: ARH-77 cells; assay: Live single cell imaging by fluorescence microscopy, cell surface Puro; assay type: cell-based; details: 20 μg/ml, 16 hr, anti-puro antibody (12D10) Alexa 647, fluorescence microscopy
# Procedure: Cell surface detection of Puro by anti-puro antibody (12D10) conjugated to Alexa 647 (EMD Millipore). ARH-77 cells were treated with Puro (0.25 μg/ml) or Boc-KAc-Puro (20 μg/ml) for 16 hr then harvested by centrifugation followed by two times wash using cold washing solution (0.1% BSA in PBS). Cells were resuspended in the same solution and incubated 30 min on ice with Alexa 647 conjugated mouse IgG2a anti-puromycin antibody (12D10). Cells were washed twice with the solution followed by fluorescence microscope analysis. The specificity of the antibody was confirmed by using isotype control antibody (mouse IgG2a conjugated with Alexa 647).
# [4] = tested on: non-malignant Caco-2 cells; assay: Cell counting, Caco-2; assay type: cell-based, human; details: 54 μM, 5 d
# Procedure: FIG. 9. The colon cancer cell lines were grown for 5 d either with vehicle control DMSO (gray symbols) or 54 μM BKAc-Puro (red and blue symbols), and cell number was determined at the indicated time points.
# as §1, with “instruction. Either 1 μl of DMSO alone or variable concentrations of BKAc-Puro or Puro in DMSO were added to the cell lines seeded at 5×10^4 cells per well in 96-well tissue culture plates in 100 μl of the growth medium, followed by 3-5 d incubation at 37° C. with 5% CO2 atmosphere.” for “instruction.”
# [5] = tested on: Puro-incorporated proteins in HCT116, HT29, CCD841-CoN and Caco-2 cells; assay: Immunoblotting of Puro-incorporated proteins in cell lysates; assay type: cell-based, human; details: 16.9 μM, 20 h
# Procedure: (§2) FIG. 27. Levels of Puro-incorporated proteins in the cells were monitored by immunoblotting. Indicated cell lines were treated either with vehicle control DMSO or Boc-KAc-Puro (16.9 μM) in the presence or absence of TSA (0.5 μM) for 20 h, followed by preparation of cell lysates. The lower panel (anti-α-Tubulin) serves as a loading control.
# as §2, with “28.” for “27.”, “Puro (2.1” for “Boc-KAc-Puro (16.9”, “16” for “20”, “lysates. […]” for “lysates.”
# Cultured cells or tissue samples were sonicated in RIPA lysis buffer (1% NP-40, 0.1% SDS, 50 mM Tris-HCl pH 7.4, 150 mM NaCl, 0.5% sodium deoxycholate, 1 mM EDTA) supplemented with PMSF and protease inhibitor cocktail (Roche) on ice followed by clarification. Protein lysates were separated on sodium dodecyl sulfate-polyacrylamide gels and transferred onto nitrocellulose membranes (Whatman). The primary antibodies used were anti-puromycin (3RH11, KeraFAST) and anti-α-tubulin (Sigma-Aldrich). Proteins of interest were detected with anti-mouse secondary antibody by chemiluminescence (ECL Kit, GE Healthcare Life Sciences).
# [6] = tested on: Puro incorporation in tumors, muscle and kidney; assay: Immunoblotting of Puro-labeled proteins in tissue lysates of HT29 xenograft mice; assay type: in vivo, mouse; details: 150 mg/kg/dose daily intraperitoneal for 3 d
# Procedure: FIG. 29. In vivo anticancer efficacy of Boc-KAc-Puro. (a) Tumor growth in HCT116 xenograft model. Animals were treated with acidified saline control or Boc-KAc-Puro (50 or 150 mg/kg). Values are mean±s.d. (n=5 mice per group). *** P<0.001 compared to the control group. P=0.000716 (50 mg/kg), P=0.000349 (150 mg/kg) at 10 d. (b) Body weight change during the treatment in a and was monitored as a sign of general animal health. Values are mean±s.d. (c) Tumor growth in HT29 xenograft model. Animals were treated with acidified saline control or Boc-KAc-Puro (150 mg/kg). Values are mean±s.d. (n=5 mice per group). *** P<0.001 compared to the control group. P=0.000514 (150 mg/kg) at 10 d. (d) Body weight change during the treatment in c was monitored as a sign of general animal health. Values are mean±s.d. (e) Levels of Puro-incorporated proteins were monitored by immunoblotting. […]
# Cultured cells or tissue samples were sonicated in RIPA lysis buffer (1% NP-40, 0.1% SDS, 50 mM Tris-HCl pH 7.4, 150 mM NaCl, 0.5% sodium deoxycholate, 1 mM EDTA) supplemented with PMSF and protease inhibitor cocktail (Roche) on ice followed by clarification. […] Proteins of interest were detected with anti-mouse secondary antibody by chemiluminescence (ECL Kit, GE Healthcare Life Sciences). […]
smiles,measurement,setting,value
"COc1ccc(CC(NC(=O)C(CCCCNC(C)=O)NC(=O)OC(C)(C)C)C(=O)NC2C(O)[C@H](n3cnc4c(N(C)C)ncnc43)O[C@@H]2CO)cc1 (stereo partly drawn) [BKAc-Puro, N-[3′-(α-Amino-p-methoxyhydrocinnamamido)-3′-deoxy-N,N-dimethyldenosinyl)-N-α-(t-butoxycarbonyl]-N-ε-acetyl-L-lysineamide]",Cell death,[1],selectively caused cell death
same,IC50,[2],~10 µM
same,Puro presentation on cell surface proteins,[3],confirmed
same,Cell proliferation (cell number),[4],allowed them to proliferate to confluency
same,"Intensity of Puro incorporation, malignant versus normal and non-malignant cells",[5],substantially greater in malignant cancer cells
same,Intensity of Puro incorporation in the presence of TSA,[5]; TSA 0.5 μM,compromised intensity
same,"Intensity of Puro incorporation, tumors versus normal muscle and kidney",[6],substantially greater in tumors
